Source: patent US8771741B2, “In vivo photodynamic therapy of cancer via a near infrared agent encapsulated in calcium phosphate nanoparticles” (The Penn State Research Foundation, priority 2009, dated 2014)
Entries after “also recorded” stand apart in the source; their conditions may differ. Structures can show the parent of a compound that is named as a salt.

Columns and labels:
[1] = tested on: MCF-7/ADR (adriamycin resistant) breast adenocarcinoma cells; test: Caspase-3/7 apoptosis assay, drug resistant cells; format: cell-based, human; settings: 24 hrs
Method: (§1) Human MCF-7 breast adenocarcinoma cells and the adriamycin resistant MCF-7-ADR(NCl-AdrR) were grown at 37° C. in RPMI 1640 medium supplemented with 10% fetal bovine serum (FBS). MCF-7 and MCF-7-ADR cells were seeded to a density of 6×10^3 cells/well and grown for 48 hrs in culture medium containing 10% FBS. Cells were then treated with Cer10-CPNP or control CPNP for 24 hrs in media containing 1% fetal bovine serum. Caspase-3/7 enzymatic activity levels were then measured using the Apo-ONE Homogenous Caspase-3/7 Assay (Promega) and performed following the instructions of the manufacturer. The kit provides a caspase-3/7 substrate and Rhodamine 110, which is cleaved by enzymatically active caspase-3/7 resulting in a fluorogenic cleavage product.

[2] = tested on: MCF-7 breast adenocarcinoma cells; test: Caspase-3/7 apoptosis assay, drug sensitive cells; format: cell-based, human; settings: MCF-7, 24 hrs
Method: as §1

[3] = Solubility in water; format: physicochemical
[4] = Solvent protection (emission spectra in four bio-relevant solvents); format: physicochemical; settings: water, DMEM, ethylene glycol, DMSO
From the text: The chemical stability of the encapsulated fluorophore was experimentally verified by analyzing fluorescence spectra as a function of solvent environment. The effect of four bio-relevant solvents (water, Dulbecco's modified Eagle's medium (DMEM), ethylene glycol, and dimethylsulfoxide (DMSO)) on the free ICG dye is shown in FIG. 17A, with shifts in the normalized emission spectra dependent on the solvent environment. The maximum emission wavelengths have a standard deviation of 7.8 nm over an 18 nm spread. These peak values shift toward longer wavelengths due to a combination of general solvent influences and specific solvent effects, such as molecule-molecule interactions and hydrogen bonding. (Lakowicz, J. R., Principles of Fluorescence Spectroscopy. 3rd ed.; Springer: Baltimore, Md., 2006).
Fluorescence spectra were recorded using an in-house spectroscopy system in which emitted radiation was collected at 90 degrees with a 10× microscope objective (N.A. 0.3) coupled into a fiber optic cable leading to the spectrometer (Ocean Optics HR-2000-USB). A high power 785 nm diode laser (450 mW/cm^2) was used as the excitation source (RL785; Renishaw plc, Gloucestershire, UK). […] Aliquots of each were diluted 1:10 into the test solvent and kept in the dark. Measurements were conducted precisely 10 minutes after the sample introduction.

[5] = Fluorescence emission of ICG-CPNPs versus free ICG; format: physicochemical; settings: aqueous solution, pH 7; data not shown
From the text: The fluorescence spectrum of the dye-doped CPNPs was compared to that of the corresponding free ICG dye under identical optical conditions (785 nm excitation). […] These undesirable phenomena result in peak transformations or spectral shifts, respectively, which are not observed for the embedded ICG emission.
For all optical measurements, samples were placed in a low-volume fluorescence cuvette (9F-SOG-10-GL14-S; Starna Cells, Inc., Atascadero, Calif.), and held by a modified cuvette holder. Absorption spectra were recorded on a PerkinElmer Lambda 950 UV-Vis-NIR spectrophotometer (Perkin Elmer, Waltham, Mass.). The dye-doped particle absorption at 785 nm was compared to a standard curve of absorption vs. ICG concentration to identify the apparent encapsulate content, not accounting for any matrix effects. Next, the release of the encapsulated fluorophore was induced with the addition of a 10:1 volume ratio of a 10^−3 M solution of ethylenediaminetetraacetic acid (EDTA) to the particle suspension. EDTA is a chelating agent that sequesters the divalent Ca^2+ ion from the nanostructure, dissolving the calcium phosphate particles. […]
Fluorescence spectra were recorded using an in-house spectroscopy system in which emitted radiation was collected at 90 degrees with a 10× microscope objective (N.A. 0.3) coupled into a fiber optic cable leading to the spectrometer (Ocean Optics HR-2000-USB). […]

[6] = tested on: nude mice implanted with subcutaneous human breast adenocarcinoma tumors; test: In vivo NIR imaging: pharmacokinetic distribution and tumor localization; settings: 24 hours post tail vein injection
Method: A NIR whole animal imaging approach was used to investigate the in vivo pharmacokinetic distribution of ICG-CPNPs in nude mice. […] Two different surface functionalities of CPNPs were evaluated, as-synthesized carboxylate surface termination (not shown) and particles surface functionalized with polyethylene glycol (PEG) (series iii). The in vivo behavior of the ICG-CPNP samples were compared to two controls: a sample of carboxylated ghost CPNPs without a fluorescent encapsulate (series i) and free ICG of equivalent absorption (series ii). […] The relatively short in vivo fluorescence of the free dye is attributed to fluorescence quenching of free ICG in physiological environments (Landsman, M. L. J.; Kwant, G.; Mook, G. A.; Zijlstra, W. G. Journal of Applied Physiology 1976, 40, (4), 575-583; Desmettre, T.; Devoisselle, J. M.; Mordon, S. Survey of Opthalmology 2000, 45, (1), 15-27; Simmons, R.; Shephard, R. J. Journal of Applied Physiology 1971, 30, (4), 502-507; Gathje, J.; Steuer, R. R.; Nicholes, K. R. K. Journal of Applied Physiology 1970, 29, (2), 181-185; Mordon, S.; Devoisselle, J. M.; Soulie-Begu, S.; Desmettre, T. Microvascular Research 1998, 55, (2), 146-152; Maarek, J. M. I.; Holschneider, D. P.; Harimoto, J. Journal of Photochemistry and Photobiology B-Biology 2001, 65, (2-3), 157-164) with rapid aggregation and clearance from the body. […]

[7] = Quantum efficiency of ICG; format: physicochemical; settings: PBS pH 7.4, reference HITC
Method: Each measurement was conducted in duplicate on two separate occasions using freshly prepared stock solutions and a new set of standard data.

[8] = tested on: animal subjects; settings: cited from earlier work
[9] = in methanol; cited from earlier work
[10] = Relative fluorescence quantum efficiency of Cy3; format: physicochemical; settings: PBS, excitation 532 nm, reference Rhodamine 6G
Method: As a comparison of the free dye to the encapsulated dye, the relative fluorescence quantum efficiency (QE) was determined according to techniques in the literature. (Williams, A. T. R.; Winfield, S. A.; Miller, J. N. The Analyst 1983, 108, 1067-1071; Kubin, R. F.; Fletcher, A. N. Journal of Luminescence 1982, 27, 455-462). In brief, the integrated fluorescence signals of the free Cy3 and the Cy3-doped CPNPs in PBS were compared to a known reference standard with an excitation wavelength of 532 nm and the QE was calculated using a modified relationship from Lakowicz (Lakowicz, J. R., Principles of Fluorescence Spectroscopy. Third ed.; Springer Science and Business Media: New York, 2006; p 54),
[formula] where Φ, and ΦR are the QE for the sample and the reference respectively, M and Mr are the slopes of the integrated intensity versus absorption plots (FIG. 12A) and n is the refractive index of each solvent. Rhodamine 6G in ethanol was used as a reference with a quantum efficiency of 0.95. (Kubin, R. F.; Fletcher, A. N. Journal of Luminescence 1982, 27, 455-462). […] FIG. 12B exemplifies this enhancement in QE by comparing the fluorescence signal of the Cy3-doped CPNPs to a solution of Cy3 free dye with the same absorption at 532 nm. […]

[11] = Fluorescence correlation spectroscopy in DPBS (pH dependent dissolution); format: physicochemical; settings: for Diffusion coefficient, average / RH (hydrodynamic radius), average: DPBS pH 4, free dye, average of ten measurements
From the text: Fluorescence correlation spectroscopy was used to determine the solution phase behavior of the particles in order to better understand the particulate behavior in biologically-relevant solutions and to monitor only the fluorescing species. To this end we examined the free dye and the particles in DPBS (Dulbecco's phosphate buffered saline), at pH 7 and at pH 4. Low pH conditions mimicked the acidic environment of an endo-lysosome in which a particle would be enveloped during endocytosis.
FCS measurements were collected for free Cy3 dye at pH 4, Cy3-doped nanoparticles at pH 4 and pH 7 in DPBS. Sample autocorrelation curves are shown in FIG. 9, where a shift of the curve to the right (greater characteristic diffusion time) signifies a lower diffusion coefficient and a larger hydrodynamic radius. In this case, the diffusion time of free Cy3 dye molecules is 127 μs and that of the nanoparticles at pH 7 is 1311 μs. […] The corresponding hydrodynamic radii are RH=9.40±3.83 nm for the nanoparticles at pH 7, RH=0.76±0.09 nm for the nanoparticles at pH 4 and RH=0.75±0.06 nm for the free dye at pH 4. Similar results were obtained for the nanoparticles in DI water at pH 7 and pH 4 (data not shown). In addition to the diffusion data, the particle number concentration can be determined based on the number of particles that diffuse through the observation volume. The CPNP suspension has a particle number concentration of ˜6×10^14 particles/mL, based on these determinations.
The diffusion coefficients and their associated hydrodynamic radii for the ten measurements collected for each sample type (the nanoparticle samples at pH 7 and pH 4, and the Cy3 free dye at pH 4) are listed in Table S1.

With `CCCCCCCCCCCCC/C=C/[C@@H](O)[C@H](CO)NC(=O)CCCCCCCCC` [Cer10 in DMSO, Decanoyl-ceramide] the “caspase 3/7 activity (apoptosis)” value [1] was “not” and the “caspase 3/7 activity (apoptosis)” value [2] was “not”.

With `O=C1OC2(c3ccc(O)cc3Oc3cc(O)ccc32)c2ccccc21` [fluorescein sodium salt] the solubility ([3]; water) was > 40 mg/mL.

For `CC1(C)C(/C=C/C=C/C=C/C=C2\N(CCCCS(=O)(=O)O)c3ccc4ccccc4c3C2(C)C)=[N+](CCCCS(=O)(=O)[O-])c2ccc3ccccc3c21` [free ICG, indocyanine green], the “spread of maximum emission wavelengths over four solvents” value [4] was 18 nm, the “concentration at which self-aggregation and loss of emission intensity occur” value [5] was 7 µM and the “in vivo fluorescence signal” value [6] was “no detectable signal; also recorded: No fluorescence signal is detected”. The “quantum efficiency (per molecule)” value [7] was 0.028±0.001 and the LD50 [8] was 50 to 80 mg/kg.

For `CN1C(=CC=CC=CC=CC2=[N+](C)c3ccccc3C2(C)C)C(C)(C)c2ccccc21.[I-]` [hexamethylindotricarbocyanine (HITC), 1,1′,3,3,3′,3′-hexamethylindotricarbocyanine iodide], the “quantum yield of reference dye” value [9] is given as 0.28.

With Cy3 amidite [Cy3 Dye] the quantum efficiency ([10]; listed as Cy3 in free solution) was 0.045, the quantum efficiency ([10]; listed as free Cy3 dye) was 0.045±0.002 and the “Diffusion coefficient, average” value [11] was 2.90 × 10^−6 cm^2/s. For the same compound, the “RH (hydrodynamic radius), average” value [11] was 0.751 nm, the “Diffusion coefficient, average” value ([11]; listed as free Cy3 dye) was 29.0±0.18×10^−7 cm^2/s and the “RH (hydrodynamic radius), average” value ([11]; listed as free Cy3 dye) was 0.75±0.06 nm. The diffusion time ([11]; sample autocorrelation curve, free dye pH 4) was 127 μs and the solubility in water [3] was < 0.05 mg/mL.
